Assay [1] deals with PE cells. Put plainly: Potency of Na+/H+ antiport inhibitors applied to PE cells. Type of assay: cell-based. The conditions noted are these: amiloride : EIPA. The method, then:
Carbonic anhydrase inhibition reduces the rate of production of H^+ and HCO3^−, which in turn must slow the rate of delivery of H^+ and HCO3^− to all cell sites, including the antiports. […] To reach a 10-mM concentration, it was necessary to solubilize the amiloride in 30% DMSO. […] Thus, at a concentration 10 times higher than EIPA's minimal effective concentration, amiloride had no effect, consistent with the known ratio of the potency of these inhibitors (3.9:0.07 μM, or ˜56) when applied to PE cells.

For assay [2], the system named is mouse IOP. Put plainly: Mouse IOP measured with the Servo-Null Micropipette System (SNMS). The class given is in vivo. The note with it: for ΔIOP after base (1st drug): sequential study; for minimally effective droplet concentration: lowering of mouse IOP; for ΔIOP (after 1st drug): vs previous period; for effect on IOP: alone. The procedure: Black Swiss outbred mice of mixed sex, 7 to 9 weeks old and approximately 30 g in weight, were obtained from Taconic, Inc. (Germantown, N.Y.). Animals were housed in accordance with National Institutes of Health recommendations, maintained under a 12-hour light-dark illumination cycle, and allowed unrestricted access to food and water. IOP measurements were performed at the same time of day (2-6 PM) to minimize diurnal effects on IOP. All procedures conformed to the ARVO Statement for the Use of Animals in Ophthalmic and Vision Research.
Before all IOP measurements, mice received general anesthesia in the form of intraperitoneal ketamine (250 mg/kg), supplemented by topical proparacaine HCl (0.5%; Allergan, Hormigueros, Puerto Rico). After reaching a stable plane of anesthesia confirmed by absent response to foot pinch, the mice were secured in a surgical stereotaxic device (David Kopf Instruments, Tujunga, Calif.), with the head positioned to avoid any pressure on the animal that could affect IOP. A heating pad at 37° C. (Delta Phase Isothermal Pad, Braintree Scientific, Braintree, Mass.) maintained body temperature. Topical proparacaine supplemented general anesthesia, and corneal dehydration was prevented by topical normal saline (309 mOsm), as necessary. The ground electrode was placed on the conjunctiva of the same or the contralateral eye, carefully avoiding any pressure on the eye.
IOP was measured with the Servo-Null Micropipette System (SNMS), an electrophysiologic, nonmanometric method of measuring pressure, previously adapted and validated for measuring IOP in the mouse (Avila et al., 2001A). The exploring, 5-μm micropipette was filled with 3 M KCl solution to ensure that the resistance of the fluid within the tip was much lower than that of the extracellular fluid. The resistance to electrical flow through the micropipette was continuously monitored and was dominated by the electrical resistance at the tip.
After entry of the tip into the anterior chamber, the step change in hydrostatic pressure forced aqueous humor into the micropipette, displacing the low-resistance 3-M KCl filling solution from the tip back toward the shank. The resultant increase in electrical resistance generated a signal to a vacuum-pressure pump that produced an equal counter-pressure that maintained the position of the aqueous humor-KCl interface at the tip of the micropipette, and thus sustains the original electrical resistance. This counter-pressure equaled the hydrostatic pressure outside the micropipette tip, in this instance the IOP. […] Before every measurement, the system was calibrated externally against a mercury manometer in the range from 0 to 50 mm Hg at 5- to 10-mm Hg intervals.
The micropipettes were fabricated from borosilicate glass (1.5 mm outer diameter, 0.84 mm inner diameter, WPI) with a puller (Sutter Instruments, San Rafael, Calif.). The tips were beveled to an outer diameter of 5 μm and a 45° angle with a micropipette beveler (Sutter).
Using the SNMS as described above, the micropipette tip was next placed in the drop of proparacaine on the cornea overlying the pupil of the subject, and the output reading from the SNMS was adjusted to zero. The micropipette was then advanced across the cornea (at 20-30° to the optical axis) into the anterior chamber by a cell-penetration positioning system (model LSS 21200; Burleigh Instruments, Inc., Fishers, N.Y.) and a piezoelectric step driver (model PZ100; Burleigh). IOP was monitored after positioning the micropipette tip in the aqueous humor. The baseline IOP in the present study was 14.2±0.4 mm Hg (n=113). In measuring drug-induced changes in IOP, each animal served as its own series control. All pressures after drug application were compared with those just before the drug was added.
To determine an individual IOP reading, the mean±SEM was calculated during a 3- to 5-minute recording period. Numbers of experiments or eyes are indicated by the symbol n. […]

The test system of assay [3] is NHE-1. The note with it: cited from earlier work.
Assay [4] has as its system PE cells. The conditions noted are these: applied to PE cells; cited from earlier work.
Assay [5] relates to mouse IOP. The conditions noted are these: cited from earlier work.
The subject of assay [6] is PE cells. Put plainly: Regulatory volume increase (post-RVD RVI) of PE cells, volumetric measurements. The class given is cell-based, bovine. The procedure:
Volumetric measurements were also performed to confirm that these antiports could function in parallel to transfer solution from the extracellular space into the cells.
Since paired Na^+/H^+ and Cl^−/HCO3^− exchangers were known to contribute to the regulatory volume increase (RVI) in many other cells (Hoffmann, Curr Top Membr Transp 30:125-180 (1987)), the regulatory volume increase in the PE cells was examined. However, the secondary RVI was not observed in the PE cells at room temperature. Consequently, the volumetric experiments were conducted at 34-37° C.
The precise time course of the baseline RVI was variable, so that the data of some experiments were better fit to an exponential expression, and others to a linear expression (filled circles, FIG. 2C). […] Secondary RVI was inhibited either by blocking the Na^+/H^+ antiport with 10 μM dimethylamiloride, or by omitting CO2/HCO3^− from the external solution.
Inhibitors were added at the same time that isotonicity was restored (t=24 min).

Where [7] appears, read: single drug, topical 10-μL droplet, 1 mM.
[8] abbreviates: 1st drug 1 mM topical, vs baseline.
[9] abbreviates: single drug, topical 10-μL droplet, 100 μM.
Setting [10] is: single drug, topical 10-μL droplet, 3 mM.

For the compound `N=C(N)NC(=O)c1nc(Cl)c(N)nc1N` [amiloride], the “ratio of the potency of these inhibitors” value in assay [1] is reported as about 56. Moreover, the ΔIOP in assay [2] (10 mM in 30% DMSO, after pretreatment with vehicle containing 30% DMSO, n=4) is 1.0±0.7 mm Hg; in assay [2] (setting [7]) it was “no significant effect on mouse IOP”. Further, the “potency at NHE-1 antiports lower than the amiloride analogues DMA and EIPA” value in assay [3] (Counillon et al., 2000) is recorded as 1 to 2 orders of magnitude. Moreover, in assay [4], the potency is 3900 nM.
For `CC(=O)Nc1nnc(S(N)(=O)=O)s1` [acetazolamide], the “lowering of mouse IOP” value in assay [5] (intraperitoneal) is 11.9±1.3 mm Hg.
With `Nc1ncnc2c1ncn2[C@@H]1O[C@H](CO)[C@@H](O)[C@H]1O` [adenosine], the “effect on IOP in the contralateral eye” value in assay [5] (100 μM, unilateral topical application) is listed as “does not alter”.
`CN(C)c1nc(N)c(C(=O)N=C(N)N)nc1Cl` [DMA, dimethylamiloride]: in assay [6] (10 μM, 34-37° C.), the “effect on secondary RVI” value was “inhibited”. The “ΔIOP after base (1st drug)” value in assay [2] (setting [8]) is on record as −4.0 ± 0.8 mm Hg. Further, the figures for the ΔIOP result in assay [2] (setting [9]) and in assay [2] (setting [10]) were “+0.9 ± 0.9 mm Hg” and −5.0 ± 0.7 mm Hg, respectively. The “reduction of IOP of the treated eye” value in assay [2] (single drug, topical, 1 mM) is 3.8±0.5 mm Hg. The “lowering of IOP” value in assay [2] (single drug, topical, 3 mM) stood at 5.0±0.7 mm Hg. In addition, the “minimally effective droplet concentration” value in assay [2] (topical) is 1 mM.
With `CCCCNc1cc(C(=O)O)cc(S(N)(=O)=O)c1Oc1ccccc1` [Bumetanide], the “effect on RVI” value in assay [6] (10 μM, added when isotonicity restored, N=9) was “did not inhibit the RVI”; in assay [6] (alone, in the nominal absence of CO2/HCO3−, P<0.01) it was “substantially inhibited the RVI”. In addition, the “change in IOP” value in assay [2] (10 mM alone, 4 mice) is −1.0±1.1 mm Hg. Further, the “reduction of IOP” value in assay [2] (10 mM bumetanide after topical ethylisopropyl-amiloride, N=6) is 4.0±0.6 mm Hg. In addition, the “ΔIOP (after 1st drug)” value in assay [2] (2nd drug 10 mM (36.4 μg) after 1 mM BIIB) is listed as −3.9 ± 0.9 mm Hg; in assay [2] (2nd drug 10 mM (36.4 μg) after 1 mM DMA), −3.8 ± 0.7 mm Hg; in assay [2] (2nd drug 10 mM (36.4 μg) after 1 mM EIPA) it was −4.0 ± 0.6 mm Hg; in assay [2] (2nd drug 10 mM (36.4 μg) after 55.5 mM dorzolamide) it was −3.9 ± 1.0 mm Hg. Moreover, the “effect on IOP” value in assay [2] (N=8, 10 uM-10 mM concentrations in topical drops) is “had no significant effect on IOP”; in assay [2] (droplet concentrations of 0.1 to 10 mM (364 ng to 36.4 μg)) it was “had no significant effect on IOP”. For the same compound, the ΔIOP in assay [2] (setting [9]) is listed as −0.8 ± 0.7 mm Hg; in assay [2] (setting [7]), −0.7 ± 1.6 mm Hg; in assay [2] (single drug, topical 10-μL droplet, 10 mM), −1.2 ± 0.6 mm Hg.
As a reminder, the IC50 is the concentration at which inhibition is half-maximal. Consider `CCN(c1nc(N)c(C(=O)NC(=N)N)nc1Cl)C(C)C` [EIPA, ethylisopropylamiloride], for which the “ΔIOP after base (1st drug)” value in assay [2] (setting [8]) is reported as −2.4 ± 0.6 mm Hg. The ΔIOP result in assay [2] (setting [9]) is recorded as “+0.8 ± 0.2 mm Hg”; in assay [2] (setting [7]) it was −2.6 ± 0.5 mm Hg; in assay [2] (setting [10]), −4.1 ± 1.0 mm Hg. For the same compound, the “lowering of IOP” value in assay [2] (single drug, topical, 3 mM) was 4.1±1.0 mm Hg. Besides, in assay [2] (topical), the “minimally effective droplet concentration” value is reported as 1 mM. Besides, the IC50 in assay [3] (Scholz et al. 1995) is 50 nM. For the same compound, in assay [4], the potency was 70 nM.
As for `O=S(=O)(O)c1cc(N=C=S)ccc1C=Cc1ccc(N=C=S)cc1S(=O)(=O)O` [DIDS, 4,4′-diisothiocyanatostilbene-2,2′-disulfonic acid], the “effect on RVI” value in assay [6] (500 μM, added when isotonicity restored, N=3) is “did not inhibit the RVI”.
Regarding `CCN[C@H]1C[C@H](C)S(=O)(=O)c2sc(S(N)(=O)=O)cc21` [Dorzolamide], the “ΔIOP after base (1st drug)” value was −3.5 ± 0.9 mm Hg in assay [2] (1st drug 55.4 mM (200 μg), series followed by BIIB, n=7) and −2.0 ± 0.4 mm Hg in assay [2] (1st drug 55.5 mM (200 μg), series followed by bumetanide, n=4). Besides, the ΔIOP in assay [2] (single drug, topical 10-μL droplet, 55.4 mM (200 μg)) is −2.9 ± 0.6 mm Hg; in assay [2] (single drug, topical 10-μL droplet, 55.4 mM (200 μg), listed as dorzolamide) it was “reduces IOP”.

These data come from US20030083227A1, “Novel combination therapy to treat glaucoma” (priority 1999, published 2003).
